Reference: the Kinase Knowledgebase extract (Sharma et al. 2016)

What was measured:
[1] = biological target: CDK2 (human) (UniProt P24941); assay: Cell-Based Assay
[2] = biological target: CDK2 (UniProt P24941); assay: Enzyme Assay

| Compound | IC50 ([1]; hct 116) [µM] | IC50 [2] [µM] | IC50 ([1]; sw480) [µM] | IC50 ([1]; mda-mb-435) [µM] |
| --- | --- | --- | --- | --- |
| O=[N+]([O-])c1ccc2c(c1)C(c1ccccc1Cl)=Nc1c(n[nH]c1-c1ccc(-n3cccc3)cc1)N2 | 10 to 30 | 10 to 30 | – | – |
| O=[N+]([O-])c1ccc2c(c1)C(c1ccccc1Cl)=Nc1c(n[nH]c1-[o+]1ccnn1)N2 | – | 10 to 30 | – | 10 to 30 |
| c1ccc(C2=Nc3c[nH]nc3Nc3ccccc32)cc1 | 10 to 30 | 1 to 9.99 | 10 to 30 | – |
| CCOC(=O)c1[nH]nc2c1N=C(c1ccccc1Cl)c1cc([N+](=O)[O-])ccc1N2 | – | 1 to 9.99 | – | 10 to 30 |
| Nc1ccc2c(c1)C(c1ccccc1Cl)=Nc1c[nH]nc1N2 | 10 to 30 | 1 to 9.99 | 10 to 30 | 10 to 30 |
| CS(=O)(=O)c1ccc2c(c1)C(c1ccccc1)=Nc1c[nH]nc1N2 | 10 to 30 | 1 to 9.99 | – | – |
| O=[N+]([O-])c1ccc2c(c1)C(c1ccccc1Cl)=Nc1c(n[nH]c1-[n+]1ccc[nH]1)N2 | – | 0.01 to 0.99 | – | 10 to 30 |
| O=[N+]([O-])c1ccc2c(c1)C(c1ccccc1Cl)=Nc1c(n[nH]c1CCc1ccccc1)N2 | 10 to 30 | 1 to 9.99 | 10 to 30 | 10 to 30 |
| Cc1ccsc1-c1[nH]nc2c1N=C(c1ccccc1Cl)c1cc([N+](=O)[O-])ccc1N2 | 10 to 30 | 0.01 to 0.99 | – | – |
| Fc1ccc2c(c1)C(c1ccccc1F)=Nc1c[nH]nc1N2 | – | 1 to 9.99 | 10 to 30 | – |
| Fc1ccccc1C1=Nc2c[nH]nc2Nc2ccccc21 | 10 to 30 | 1 to 9.99 | 10 to 30 | – |
| Cc1[nH]nc2c1N=C(c1ccccc1)c1cc(I)ccc1N2 | – | 1 to 9.99 | 10 to 30 | – |

The next lines start with the values.

| IC50 ([1]; hct 116) [µM] | IC50 [2] [µM] | IC50 ([1]; sw480) [µM] | IC50 ([1]; mda-mb-435) [µM] | Compound |
| --- | --- | --- | --- | --- |
| 10 to 30 | 0.01 to 0.99 | 10 to 30 | – | O=[N+]([O-])c1ccc2c(c1)C(c1ccccc1Cl)=Nc1c(n[nH]c1-c1cccs1)N2 |
| – | 10 to 30 | 10 to 30 | – | O=[N+]([O-])c1ccc2c(c1)C(c1ccccc1Cl)=Nc1c(n[nH]c1-c1ccccc1C(F)(F)F)N2 |
| 10 to 30 | 1 to 9.99 | 10 to 30 | – | Cc1ccccc1-c1[nH]nc2c1N=C(c1ccccc1Cl)c1cc([N+](=O)[O-])ccc1N2 |
| 10 to 30 | 10 to 30 | – | – | O=[N+]([O-])c1ccc2c(c1)C(c1ccccc1Cl)=Nc1c(n[nH]c1-c1cccc(C(F)(F)F)c1)N2 |
| 10 to 30 | 1 to 9.99 | 10 to 30 | – | O=[N+]([O-])c1ccc2c(c1)C(c1ccccc1Cl)=Nc1c(n[nH]c1-c1cc3ccccc3[nH]1)N2 |
| 10 to 30 | 1 to 9.99 | – | – | O=[N+]([O-])c1ccc2c(c1)C(c1ccccc1Cl)=Nc1c(n[nH]c1-c1cc3ccccc3o1)N2 |
| 10 to 30 | 1 to 9.99 | 10 to 30 | 10 to 30 | O=[N+]([O-])c1ccc2c(c1)C(c1ccccc1Cl)=Nc1c(n[nH]c1Cc1ccccc1)N2 |
